Columns and labels:
human tumor xenografts = conditions: cited from earlier work
[1] = XRPD after storage in a closed vial at ambient conditions; assay type: physicochemical; conditions: 31 days
[2] = Moisture sorption/desorption (VTI SGA-100 moisture balance); assay type: physicochemical; conditions: for hygroscopicity: from moisture sorption data, 5 to 95% RH; for Weight % chg: start, elapsed time 0.0 min, 25 deg C (RH 14.41% Form A, 9.87% Form B)
Description: The samples were not dried prior to analysis.

[3] = cited from earlier work
Grinding of Form A, XRPD = assay type: physicochemical; conditions: ground in an amalgamator for 10 minutes
Description: The XRPD data for the increased amorphous content material obtained by grinding a crystalline polymorph are plotted in FIG. 29. […] Further grinding is expected to increase the amorphous content and further broaden the XRPD pattern with the limit of the XRPD pattern being so broadened that it cannot be discerned above noise. When the XRPD pattern is broadened to the limit of being indiscernable, the material is no longer a crystalline material having increased amorphous content relative to unground crystallized material, but is a material that is wholly amorphous as defined herein.
The sample was then analyzed using XRPD.

[4] = Dehydration/desolvation under vacuum, XRPD; assay type: physicochemical
Description: The characterization of this weight loss as THF solvent is supported by the ^1H NMR data.

SMILES: CC[C@@]1(O)C(=O)OCc2c1cc1n(c2=O)Cc2cc3c([N+](=O)[O-])cccc3nc2-1 [9-nitrocamptothecin, 9-nitro-20(S)-camptothecin]
- growth of human tumor xenografts (human tumor xenografts; immunodeficient nude mice): inhibited the growth of human tumor xenografts
- regression of established human tumor xenografts (human tumor xenografts; nude mice): induced regression of human tumors

SMILES: CC[C@@]1(O)C(=O)OCc2c1cc1n(c2=O)Cc2cc3c([N+](=O)[O-])cccc3nc2-1 [Form B, 9-nitrocamptothecin]
- stability of the crystalline form (XRPD pattern vs FIG. 5) [1]: relatively stable
- hysteresis between the hydration and dehydration curves [2]: essentially no hysterisis
- hygroscopicity [2]: relatively hygroscopic
- Weight % chg [2]: 0.0000%

SMILES: CC[C@@](O)(C(=O)[O-])c1cc2n(c(=O)c1CO)Cc1cc3ccccc3nc1-2.[Na+] [Sodium camptothecin]
- side effects in clinical trials ([3]; administered intravenously): unpredictable side effects such as myelosuppression and hemorrhagic cystitis
- activity in clinical trials ([3]; solubilized by sodium hydroxide in water, intravenous): found to have antineoplastic activity

SMILES: CC[C@@]1(O)C(=O)OCc2c1cc1n(c2=O)Cc2cc3c([N+](=O)[O-])cccc3nc2-1 [Form A, 9-nitrocamptothecin]
- effect of grinding on crystallinity (XRPD) (Grinding of Form A, XRPD): losing crystallinity after grinding
- hysteresis between the hydration and dehydration curves [2]: A small amount of hysteresis
- hygroscopicity [2]: not hygroscopic
- Weight % chg [2]: 0.0000%

SMILES: CC[C@@]1(O)C(=O)OCc2c1cc1n(c2=O)Cc2cc3c([N+](=O)[O-])cccc3nc2-1 [Form C, 9-nitrocamptothecin]
- form after attempt to desolvate under vacuum [4]: becomes amorphous

Reference: patent publication US7071202B2 (SuperGen, Inc., priority 2002, dated 2006)
